Reference: patent US20150258189A1, “HEPATITIS C VIRUS PARTICLES FORMATION PROMOTER, AND METHOD OF PRODUCING HEPATITIS C VIRUS PARTICLES” (priority 2012, published 2015)
Where two headings read alike, the source gives them in different places.

How the values were obtained:
Type in all cases: cell-based, hepatitis C virus
HCV JFH1 strain [1] = conditions: for Promotion ratio (HCV particle production-promoting effect): added after HCV adsorption, 46 h culture, Huh7-it cells, moi=0.1, control (DMSO) = 1.0
Description: In this example, the purified lovastatin solution “B15.4.1” (FIG. 1) of Example 1 was used as the “HCV particle formation promoter.” A lovastatin solution prepared by adding a culture medium to the HCV particle formation promoter to adjust each lovastatin concentration at the time of virus inoculation and at the time of culture to from 1.25 to 20 μg/ml was used in the following.
In this example, Huh7-it cells, a highly HCV-permissive cell line derived from Huh7 cells, were used as culture cells. The medium used was Dulbecco's modified Eagle's medium supplemented with 10% fetal calf serum, non-essential amino acids, penicillin, and streptomycin, and the cells were cultured using a 48-well culture plate.
A HCV stock solution to be used to promote formation of HCV particles was prepared by the following method. The HCV strain used was JFH1 strain (genome sequence: GenBank accession number AB047639). RNA having the same sequence as that of the full genome of the HCV JFH1 strain was introduced (transfected) into Huh7-it cells by an electroporation method (van den Hoff M J et al., Nucleic Acids Res., 20:2902, 1992), and the culture supernatant 72 hours after the introduction was collected. The collected culture supernatant was passed through a 0.45-μm filter (Millipore) to remove contaminants, and then added to other Huh7-it cells. An infectivity titer was calculated by measuring the number of HCV-infected cells after 72 hours by a focus method, and a solution adjusted to have an infectivity titer of 5.4×10^4 infectious units/ml was used as the HCV stock solution. The infectivity titer to prepare the HCV stock solution was calculated by an immunostaining method. An anti-HCV-core (clone CP14) monoclonal antibody was used as a primary antibody, and a HRP-labeled goat anti-mouse antibody was used as a labeling antibody. Konica Immunostain HRP-1000 (Konica Minolta) was added, and the number of virus antigen-positive cell populations stained in blue (immunofocus; also called focus) was measured under a microscope. Thus, the infectivity titer was calculated.
A mixture of the HCV stock solution (5.4×10^4 infectious units/ml) prepared in the above-mentioned section 3) and the HCV particle formation promoter was inoculated into culture cells, and the virus was adsorbed to the cells at 37° C. for 2 hours. Then, the virus liquid was removed, and the cells were washed three times with a culture medium. After that, in the same manner as described above, the cells were cultured for […] with the addition of the HCV particle formation promoter (lovastatin concentration: 1.25 to 20 μg/ml). The virus was inoculated into the culture cells so that the multiplicity of infection (moi) was 0.1.
To confirm a virus-producing ability, the culture medium of the infected cells was centrifuged at 10,000 rpm for 3 minutes, and the centrifugation supernatant was used as a sample liquid. The sample liquid was inoculated into non-HCV-infected Huh7-it cells. […] The number of staining-positive cells was measured, and the HCV infectivity titer was measured.
In this example, the crude lovastatin solution “B15” (FIG. 1) of Example 1 was used as the “HCV particle formation promoter.” A lovastatin solution prepared by adding a culture medium to the HCV particle formation promoter to adjust each lovastatin concentration at the time of virus inoculation and at the time of culture to from 1 to 50 μg/ml was used in the following.
In this example, HCV was inoculated into culture cells to achieve moi=0.1 as in Example 2, and the HCV particle formation promoter was added at the following timings i) to iii).
A mixture of HCV and the HCV particle formation promoter was inoculated into culture cells, and the virus was adsorbed to the cells at 37° C. for 2 hours. Then, the virus liquid was removed, and the cells were washed three times with a culture medium. After that, the cells were cultured for 46 hours with the addition of the HCV particle formation promoter containing lovastatin. […]

HCV JFH1 strain [2] = test: Intracellular HCV infectivity titer in Huh7-it cells (freeze-thawing method); conditions: Example 5; 20 μg/ml lovastatin, from adsorption to 48 h after infection; versus DMSO control (FIG. 5)
Description: In this example, culture cells were prepared in the same manner as in Example 2 to confirm the influence on the HCV infectivity titer inside and outside Huh7-it cells in adding the HCV particle formation promoter to the cells over a period of from during HCV adsorption to 48 hours after HCV infection. In this example, the purified lovastatin solution “B15.4.1” (FIG. 1) of Example 1 was used as the HCV particle formation promoter. A lovastatin solution prepared by adding a culture medium to the HCV particle formation promoter to adjust each lovastatin concentration at the time of virus inoculation and at the time of culture to 20 μg/ml was used in the following. A system containing dimethylsulfoxide (DMSO) in place of the HCV particle formation promoter was used as a control.
A sample to measure an extracellular HCV infectivity titer was prepared in the same manner as in Example 2. A sample to measure an intracellular HCV infectivity titer was prepared by a freeze-thawing method. First, infected cells were washed with PBS and then detached by trypsin/EDTA treatment, followed by centrifugation to collect a cell pellet. The cell pellet was washed once with PBS, suspended in 0.5 ml of a culture medium, and freeze-thawed at −80° C. three times repeatedly, followed by centrifugation at 12,000 rpm for 5 minutes. […] Each sample was measured for its virus titer in the same manner as in Example 2.

HCV RNA = test: Intracellular HCV RNA copy number by quantitative RT-PCR in Huh7-it cells; conditions: Example 6; 20 μg/ml lovastatin; days 1, 2, 3 and 4 after infection; versus DMSO control (FIG. 6)
Description: In this example, culture cells were prepared in the same manner as in Example 2 to confirm the influence on the HCV RNA copy number in the culture cells on days 1, 2, 3, and 4 after HCV infection in adding the HCV particle formation promoter to Huh7-it cells over a period of from during HCV adsorption to 48 hours after HCV infection. In this example, the purified lovastatin solution “B15.4.1” (FIG. 1) of Example 1 was used as the HCV particle formation promoter. A lovastatin solution prepared by adding a culture medium to the HCV particle formation promoter to adjust each lovastatin concentration at the time of virus inoculation and at the time of culture to 20 μg/ml was used in the following. A system containing DMSO in place of the HCV particle formation promoter was used as a control.
A sample to measure an intracellular HCV RNA copy was prepared in the same manner as in Example 5. Total RNA was extracted from infected cells using Trizol®/Trizol®-LS (Invitrogen). cDNA was synthesized from the total RNA by performing a reverse transcription reaction at 37° C. for 15 minutes and an enzyme inactivation reaction at 98° C. for 5 minutes through the use of a ReverTra Ace® qPCR-Kit (Toyobo). The HCV RNA copy number was measured by a quantitative RT-PCR method using a LightCycler® 480 real-time PCR system. […]

HCV protein (antigen) = test: Intracellular HCV protein (antigen) synthesis by immunostaining in Huh7-it cells; conditions: Example 6, 20 μg/ml lovastatin, versus DMSO control (FIG. 7)
HCV JFH1 strain [3] = conditions: added after HCV adsorption, 46 h culture, Huh7-it cells, moi=0.1, control (DMSO) = 1.0

Row | Structure (SMILES) | Promotion ratio (HCV particle production-promoting effect) (HCV JFH1 strain [1]; 1.25 μg/ml) | Promotion ratio (HCV particle production-promoting effect) (HCV JFH1 strain [1]; 2.5 μg/ml) | Promotion ratio (HCV particle production-promoting effect) (HCV JFH1 strain [1]; 5.0 μg/ml) | Promotion ratio (HCV particle production-promoting effect) (HCV JFH1 strain [1]; 20.0 μg/ml) | HCV infectivity titer (HCV JFH1 strain [1]; Example 2, 5 to 20 μg/ml of lovastatin, during adsorption and 48 h culture, Huh7-it cells (FIG. 2)) | virus infectivity titer (HCV JFH1 strain [1]; Example 4, 20 μg/ml lovastatin, added after HCV adsorption (with or without presence during adsorption), 46 h culture (FIG. 4)) | intracellular HCV particle-producing ability versus control (HCV JFH1 strain [2]) | intracellular HCV RNA replication amount (HCV RNA) | intracellular HCV protein (antigen) synthesis amount (HCV protein (antigen)) | Promotion ratio (HCV particle production-promoting effect) (HCV JFH1 strain [3]; 80.0 μg/ml) | Promotion ratio (HCV particle production-promoting effect) (HCV JFH1 strain [3]; 200.0 μg/ml)
1 | CC(C)c1c(C(=O)Nc2ccccc2)c(-c2ccccc2)c(-c2ccc(F)cc2)n1CC[C@@H](O)C[C@@H](O)CC(=O)O [Atorvastatin, calcium (3R,5R)-7-[2-(4-fluorophenyl)-5-isopropyl-3-phenyl-4-[(phenylamino)carbonyl]-1H-pyrrol-1-yl]-3,5-dihydroxyheptanoate] | 0.9 | 4.3 | 9.4 | 9.7 | – | – | – | – | – | – | –
2 | CC[C@H](C)C(=O)O[C@H]1C[C@@H](C)C=C2C=C[C@H](C)[C@H](CC[C@@H]3C[C@@H](O)CC(=O)O3)[C@H]21 [B15.4.1] | – | – | – | – | high HCV infectivity titer was found in a lovastatin concentration-dependent manner | high virus infectivity titer was found | substantially no difference | not affected | not affected | – | –
3 | CC(C)n1c(/C=C/[C@@H](O)C[C@@H](O)CC(=O)[O-])c(-c2ccc(F)cc2)c2ccccc21.[Na+] [Fluvastatin, sodium (3R,5S,6E)-7-[3-(4-fluorophenyl)-1-(1-methylethyl)-1H-indol-2-yl]-3,5-dihydroxy-6-heptenoate] | 9.2 | 14.3 | 15.2 | 7.9 | – | – | – | – | – | – | –
4 | CC[C@H](C)C(=O)O[C@H]1C[C@@H](C)C=C2C=C[C@H](C)[C@H](CC[C@@H]3C[C@@H](O)CC(=O)O3)[C@H]21 [Lovastatin, (1S,3R,7S,8S,8aR)-8-[2-((2R,4R)-4-hydroxy-6-oxotetrahydro-2H-pyran-2-yl)ethyl]-3,7-dimethyl-1,2,3,7,8,8a-hexahydro-1-naphthyl] | 0.8 | 3.5 | 6.1 | 11.1 | – | – | – | – | – | – | –
5 | CC[C@H](C)C(=O)O[C@H]1C[C@H](O)C=C2C=C[C@H](C)[C@H](CC[C@@H](O)C[C@@H](O)CC(=O)O)[C@H]21 [Pravastatin, (1S,βR,δR,8aβ)-1,2,6,7,8,8a-hexahydro-β,δ,6β-trihydroxy-2β-methyl-8α-[(S)-2-methyl-1-oxobutoxy]-1β-naphthaleneheptanoate] | – | – | 0.6 | 2.7 | – | – | – | – | – | 17.2 | 24.7
6 | CCC(C)(C)C(=O)O[C@H]1C[C@@H](C)C=C2C=C[C@H](C)[C@H](CC[C@@H]3C[C@@H](O)CC(=O)O3)[C@H]21 [Simvastatin, (1S,3R,7S,8S,8aR)-8-[2-[(2R,4R)-4-hydroxy-6-oxotetrahydropyran-2-yl]ethyl]-3,7-dimethyl-1,2,3,7,8,8a-hexahydro-1-naphthyl] | 8.5 | 14.8 | 19.5 | 4.1 | – | – | – | – | – | – | –
